In patent US10954216B2, “BMP-signal-inhibiting compound” (RIKEN, priority 2016, dated 2021):
Read-outs that look alike come from different tables or passages of the source.

System: BMP signal in MDA-231-D-BREFluc/Rluc cells
Assay: BMP signal inhibitory effect (AlphaScreen SureFire SMAD1 p-Ser463/465, BMP-6 stimulation)
Assay type: cell-based
Method: BMP Signal Inhibitory Effect
A BMP signal inhibitory activity of a compound of the present invention was evaluated according to the following method.
MDA-231-D-BREFluc/Rluc cells prepared according to the method described in Y. Katsuno et al., Oncogene, 27, 6322 (2008) were incubated at 37° C. for 2 hours together with test compounds, and BMP-6 (commercially available from R&D System, 507-BM-020) was then added thereto, and the mixture was additionally incubated at 37° C. for 30 minutes. A Lysis Buffer and Acceptor mix of AlphaScreen SureFire SMAD1 (p-Ser463/465) assay kit (commercially available from Perkin Elmer, TGRSM1S10K) were sequentially added thereto, the mixture was incubated at room temperature for 2 hours, and AlphaScreen Protein A kit (commercially available from Perkin Elmer, 6760617) was then added thereto, and standard AlphaScreen settings of Alpha Technology—compatible plate reader (commercially available from Perkin Elmer, EnSpire) was used for measurement.

[1] = BMP-6 stimulated MDA-231-D-BREFluc/Rluc cells, phospho-SMAD1 AlphaScreen, read-out: IC50

SMILES	IC50 [1] [nM]	IC50 [nM]
CCn1cc(-c2ccnc(Nc3ccc(N4CCN(CCOC)CC4)c(C#N)c3)n2)c(-c2cccnc2)n1 [Example 83, 5-((4-(1-Ethyl-3-(pyridin-3-yl)-1H-pyrazol-4-yl)pyrimidin-2-yl)amino)-2-(4-(2-methoxyethyl)piperazin-1-yl)benzonitrile]	14.3	
CCn1cc(-c2ccnc(Nc3ccc(-n4cnc(C)n4)cc3)n2)c(-c2cccnc2)n1 [Example 26, 4-(1-ethyl-3-(pyridin-3-yl)-1H-pyrazol-4-yl)-N-(4-(3-methyl-1H-1,2,4-triazol-1-yl)phenyl)pyrimidin-2-amine]	18.5	
CCn1cc(-c2ccnc(Nc3cnn(C4CCN(C5COC5)CC4)c3)n2)c(-c2cccnc2)n1 [Example 128, 4-(1-Ethyl-3-(pyridin-3-yl)-1H-pyrazol-4-yl)-N-(1-(1-(oxetan-3-yl)piperidin-4-yl)-1H-pyrazol-4-yl)pyrimidin-2-amine]	32	
CCn1cc(-c2ccnc(Nc3ccc(N4CCN(CC(=O)O)CC4)cc3)n2)c(-c2cccnc2)n1 [Example 173, 2-(4-(4-((4-(1-Ethyl-3-(pyridin-3-yl)-1H-pyrazol-4-yl)pyrimidin-2-yl)amino)phenyl)piperazin-1-yl)acetic acid]	47.6	
CCn1cc(-c2ccnc(Nc3ccc(C4CCN(C(=O)CO)CC4)cc3)n2)c(-c2cccnc2)n1 [Example 59, 1-(4-(4-((4-(1-ethyl-3-(pyridin-3-yl)-1H-pyrazol-4-yl)pyrimidin-2-yl)amino)phenyl)piperidin-1-yl)-2-hydroxyethan-1-one]	25.2	
CCn1cc(-c2ccnc(Nc3ccc4c(c3)CCN(C3COC3)CC4)n2)c(-c2cccnc2)n1 [Example 125, N-(4-(1-Ethyl-3-(pyridin-3-yl)-1H-pyrazol-4-yl)pyrimidin-2-yl)-3-(oxetan-3-yl)-2,3,4,5-tetrahydro-1H-benzo [d] azepin-7-amine]	10	
CCn1cc(-c2ccnc(Nc3ccc(-n4nc(C)nc4C)cc3)n2)c(-c2cccnc2)n1 [Example 39, N-(4-(3,5-dimethyl-1H-1,2,4-triazol-1-yl)phenyl)-4-(1-ethyl-3-(pyridin-3-yl)-1H-pyrazol-4-yl)pyrimidin-2-amine]	11.2	
CCn1cc(-c2ccnc(Nc3ccc4c(c3)CCN(CC(N)=O)C4)n2)c(-c2cccnc2)n1 [Example 90, 2-(6-((4-(1-Ethyl-3-(pyridin-3-yl)-1H-pyrazol-4-yl)pyrimidin-2-yl)amino)-3,4-dihydroisoquinolin-2(1H)-yl)acetamide]	21.6	
COCC(O)CN1CCN(c2ccc(Nc3nccc(-c4cn(CC(C)(C)O)nc4-c4cccnc4)n3)cc2)CC1 (stereo not drawn) [Example 111, 1-(4-(2-((4-(4-(2-Hydroxy-3-methoxypropyl)piperazin-1-yl)phenyl)amino)pyrimidin-4-yl)-3-(pyridin-3-yl)-1H-pyrazol-1-yl)-2-methylpropan-2-ol]	27.3	
CCn1cc(-c2ccnc(Nc3ccc(N4CCN(CC5CCOC5)CC4)cc3)n2)c(-c2cccnc2)n1 (stereo not drawn) [Example 97, 4-(1-Ethyl-3-(pyridin-3-yl)-1H-pyrazol-4-yl)-N-(4-(4-((tetrahydrofuran-3-yl)methyl)piperazin-1-yl)phenyl)pyrimidin-2-amine]	15.2	
COCCn1cc(-c2ccnc(Nc3ccc(OC4CN(CC(C)(C)O)C4)cc3)n2)c(-c2cccnc2)n1 [Example 107, 1-(3-(4-((4-(1-(2-Methoxyethyl)-3-(pyridin-3-yl)-1H-pyrazol-4-yl)pyrimidin-2-yl)amino)phenoxy)azetidin-1-yl)-2-methylpropan-2-ol]	24.4	
COCCn1cc(-c2ccnc(Nc3ccc(N4CCN(CC5CC5)CC4)cc3)n2)c(-c2cccnc2)n1 [Example 36, N-(4-(4-(Cyclopropylmethyl)piperazin-1-yl)phenyl)-4-(1-(2-methoxyethyl)-3-(pyridin-3-yl)-1H-pyrazole-4-yl)pyrimidin-2-amine]	15.9	
CCn1cc(-c2ccnc(Nc3ccc(N4CCC[C@H](N)C4)cc3)n2)c(-c2cccnc2)n1 [Example 160, (S)-N-(4-(3-Aminopiperidin-1-yl)phenyl)-4-(1-ethyl-3-(pyridin-3-yl)-1H-pyrazol-4-yl)pyrimidin-2-amine]	15.8	
CCn1cc(-c2ccnc(Nc3ccc(C4CCCN(C)C4)cc3)n2)c(-c2cccnc2)n1 (stereo not drawn) [Example 113, 4-(1-Ethyl-3-(pyridin-3-yl)-1H-pyrazol-4-yl)-N-(4-(1-methylpiperidin-3-yl)phenyl)pyrimidin-2-amine]	8	
CCn1cc(-c2ccnc(Nc3ccc(-c4cnn(CCOC)c4)cc3)n2)c(-c2cccnc2)n1 [Example 28, 4-(1-Ethyl-3-(pyridin-3-yl)-1H-pyrazol-4-yl)-N-(4-(1-(2-methoxyethyl)-1H-pyrazol-4-yl)phenyl)pyrimidin-2-amine]	24.6	
CCn1cc(-c2ccnc(Nc3ccc4c(c3)OCCN(C)C4)n2)c(-c2cccnc2)n1 [Example 67, N-(4-(1-ethyl-3-(pyridin-3-yl)-1H-pyrazol-4-yl)pyrimidin-2-yl)-4-methyl-2,3,4,5-tetrahydrobenzo[f][1,4]oxazepin-8-amine]	5.3	
COCCN1CCN(c2ccc(Nc3nccc(-c4cn(CC(C)(C)O)nc4-c4cccnc4)n3)cc2)CC1 [Example 81, 1-(4-(2-((4-(4-(2-Methoxyethyl)piperazin-1-yl)phenyl)amino)pyrimidin-4-yl)-3-(pyridin-3-yl)-1H-pyrazol-1-yl)-2-methylpropan-2-ol]	21	

SMILES	IC50 [1] [nM]	IC50 [nM]
COCCN1CCC(c2ccc(Nc3nccc(-c4cn(CCOC)nc4-c4cccnc4)n3)cc2)CC1 [Example 57, 4-(1-(2-methoxyethyl)-3-(pyridin-3-yl)-1H-pyrazol-4-yl)-N-(4-(1-(2-methoxyethyl)piperidin-4-yl)phenyl)pyrimidin-2-amine]	13	
CCn1cc(-c2ccnc(Nc3ccc(N4CCC(C(C)(C)N)CC4)cc3)n2)c(-c2cccnc2)n1 [Example 178]	14.8	
CCn1cc(-c2ccnc(Nc3cc(F)c(N4CCNCC4)c(F)c3)n2)c(-c2cccnc2)n1 [Example 153, N-(3,5-Difluoro-4-(piperazin-1-yl)phenyl)-4-(1-ethyl-3-(pyridin-3-yl)-1H-pyrazol-4-yl)pyrimidin-2-amine]	6.5	
CC(C)(O)Cn1cc(-c2ccnc(Nc3ccc(C4CCN(C5COC5)CC4)cc3)n2)c(-c2cccnc2)n1 [Example 132]	24.9	
COCCN1CCN(c2ccc(Nc3nccc(-c4cn(Cc5ccccc5C#N)nc4-c4cccnc4)n3)cc2)CC1 [Example 82]	18.4	
CCn1cc(-c2ccnc(Nc3ccc(OC4CCNCC4F)cc3)n2)c(-c2cccnc2)n1 (stereo not drawn) [Example 164, 4-(1-Ethyl-3-(pyridin-3-yl)-1H-pyrazol-4-yl)-N-(4-((3-fluoropiperidin-4-yl)oxy)phenyl) pyrimidin-2-amine]	11.4	
CCn1cc(-c2ccnc(Nc3ccc4c(c3)NCCC4)n2)c(-c2cccnc2)n1 [Example 170, N-(4-(1-Ethyl-3-(pyridin-3-yl)-1H-pyrazol-4-yl)pyrimidin-2-yl)-1,2,3,4-tetrahydroquinolin-7-amine]	22.7	
CCn1cc(-c2ccnc(Nc3ccc(OC4CC5CCC(C4)N5)cc3)n2)c(-c2cccnc2)n1 (stereo not drawn) [Example 146, N-(4-((8-Azabicyclo[3.2.1]octan-3-yl)oxy)phenyl)-4-(1-ethyl-3-(pyridin-3-yl)-1H-pyrazol-4-yl)pyrimidin-2-amine]		13.5
CCn1cc(-c2ccnc(Nc3cccc(C(=O)N4CCN(C(C)C)CC4)c3)n2)c(-c2cccnc2)n1 [Example 122, (3-((4-(1-Ethyl-3-(pyridin-3-yl)-1H-pyrazol-4-yl)pyrimidin-2-yl)amino)phenyl)(4-isopropylpiperazin-1-yl)methanone]	23.6	
CCn1cc(-c2ccnc(Nc3cnn(C4CCOCC4)c3)n2)c(-c2cccnc2)n1 [Example 53, 4-(1-ethyl-3-(pyridin-3-yl)-1H-pyrazol-4-yl)-N-(1-(tetrahydro-2H-pyran-4-yl)-1H-pyrazol-4-yl)pyrimidin-2-amine]	22	
CCn1cc(-c2ccnc(Nc3ccc(N4CCN(CCOC)CC4)c(F)c3)n2)c(-c2cccnc2)n1 [Example 18, 4-(1-Ethyl-3-(pyridin-3-yl)-1H-pyrazol-4-yl)-N-(3-fluoro-4-(4-(2-methoxyethyl)piperazin-1-yl)phenyl)pyrimidin-2-amine]	30.8	
CCn1cc(-c2ccnc(Nc3ccc(N4CCN(C(=O)CO)CC4)cc3)n2)c(-c2cccnc2)n1 [Example 174, 1-(4-(4-((4-(1-ethyl-3-(pyridin-3-yl)-1H-pyrazol-4-yl)pyrimidin-2-yl)amino)phenyl)piperazin-1-yl)-2-hydroxyethan-1-one]	37	
COCCN1CCN(c2ccc(Nc3nccc(-c4cn(CC5(C)COC5)nc4-c4cccnc4)n3)cc2)CC1 [Example 77]	51.3	
CCn1cc(-c2ccnc(Nc3ccc(C(=O)N4CCN(C5CCCCC5)CC4)cc3)n2)c(-c2cccnc2)n1 [Example 120, (4-Cyclohexylpiperazin-1-yl) (4-((4-(1-ethyl-3-(pyridin-3-yl)-1H-pyrazol-4-yl)pyrimidin-2-yl)amino)phenyl) methanone]	6.1	
CCn1cc(-c2ccnc(Nc3ccc4c(c3)CN(CC3CCCO3)CC4)n2)c(-c2cccnc2)n1 (stereo not drawn) [Example 88, N-(4-(1-Ethyl-3-(pyridin-3-yl)-1H-pyrazol-4-yl)pyrimidin-2-yl)-2-((tetrahydrofuran-2-yl)methyl)-1,2,3,4-tetrahydroisoquinolin-7-amine]	5.5	
COCC(O)CN1CCN(c2ccc(Nc3nccc(-c4cn(C5COC5)nc4-c4cccnc4)n3)cc2)CC1 (stereo not drawn) [Example 110, 1-Methoxy-3-(4-(4-((4-(1-(oxetan-3-yl)-3-(pyridin-3-yl)-1H-pyrazol-4-yl)pyrimidin-2-yl)amino)phenyl)piperazin-1-yl)propan-2-ol]	32.8	
